From ChEMBL document CHEMBL4477206, “Benzylpiperidine-Linked Diarylthiazoles as Potential Anti-Alzheimer's Agents: Synthesis and Biological Evaluation” (J Med Chem, 2016)

How the values were obtained:
Cholinesterase = Cholinesterase (Equus caballus, UniProt P81908); assay: Inhibition of equine serum BuChE using BTCI as substrate preincubated for 30 mins followed by substrate addition measured after 30 mins by Ellman assay
Acetylcholinesterase = Acetylcholinesterase (Homo sapiens, UniProt P22303); assay: Inhibition of human erythrocyte AChE using ATCI as substrate preincubated for 30 mins followed by substrate addition measured after 30 mins by Ellman assay
in vitro [1] = conditions: human, sh-sy5y
Description: Cytotoxicity against human SH-SY5Y cells assessed as cell viability at 40 uM after 24 hrs by MTT assay

in vitro [2] = conditions: human, sh-sy5y; remark: listed apart in the source
Description: Cytotoxicity against human SH-SY5Y cells assessed as cell viability at 80 uM after 24 hrs by MTT assay

Chain of Acetylcholinesterase (P22303 whole entry): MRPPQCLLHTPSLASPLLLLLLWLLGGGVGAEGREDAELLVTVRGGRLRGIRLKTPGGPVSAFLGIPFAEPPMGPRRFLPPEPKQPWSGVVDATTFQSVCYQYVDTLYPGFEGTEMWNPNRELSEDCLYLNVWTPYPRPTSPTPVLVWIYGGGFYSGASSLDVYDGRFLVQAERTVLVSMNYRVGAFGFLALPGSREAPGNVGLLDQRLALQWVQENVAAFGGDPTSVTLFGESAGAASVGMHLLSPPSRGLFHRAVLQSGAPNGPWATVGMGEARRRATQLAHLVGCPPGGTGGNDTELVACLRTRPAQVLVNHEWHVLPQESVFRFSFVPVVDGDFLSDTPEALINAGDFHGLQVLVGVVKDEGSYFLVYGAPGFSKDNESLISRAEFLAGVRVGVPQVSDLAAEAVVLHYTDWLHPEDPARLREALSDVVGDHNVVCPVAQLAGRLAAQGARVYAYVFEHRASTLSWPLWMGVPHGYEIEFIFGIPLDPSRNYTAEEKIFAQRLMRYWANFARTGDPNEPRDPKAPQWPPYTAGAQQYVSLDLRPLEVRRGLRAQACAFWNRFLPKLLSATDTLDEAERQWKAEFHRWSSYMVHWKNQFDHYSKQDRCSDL
Chain of Cholinesterase (P81908 whole entry): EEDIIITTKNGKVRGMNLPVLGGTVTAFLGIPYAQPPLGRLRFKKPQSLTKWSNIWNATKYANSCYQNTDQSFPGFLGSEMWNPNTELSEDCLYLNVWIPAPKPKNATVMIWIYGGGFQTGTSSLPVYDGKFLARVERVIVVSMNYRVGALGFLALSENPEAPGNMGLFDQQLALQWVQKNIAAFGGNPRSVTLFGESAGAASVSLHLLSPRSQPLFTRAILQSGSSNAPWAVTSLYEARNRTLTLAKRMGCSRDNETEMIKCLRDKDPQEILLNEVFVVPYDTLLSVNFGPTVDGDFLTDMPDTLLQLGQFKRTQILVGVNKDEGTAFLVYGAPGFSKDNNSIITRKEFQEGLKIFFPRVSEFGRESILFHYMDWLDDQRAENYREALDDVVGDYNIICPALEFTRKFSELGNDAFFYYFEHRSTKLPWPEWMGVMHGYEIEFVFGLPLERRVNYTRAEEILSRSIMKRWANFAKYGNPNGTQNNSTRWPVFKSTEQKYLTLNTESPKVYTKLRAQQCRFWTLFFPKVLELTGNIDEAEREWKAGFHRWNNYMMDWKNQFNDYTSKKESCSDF

Q: With `Cc1ccc(-c2nc(NC(=O)C3CCN(Cc4ccc(F)cc4Cl)CC3)sc2-c2ccc(C)cc2)cc1` as the compound, how does the IC50 (Cholinesterase) read?
A: 1.6 µM

Q: What about the IC50 (Acetylcholinesterase) of the same compound?
A: > 10 µM

Q: Which IC50 (Cholinesterase) does the source give for `O=C(Nc1nc(-c2ccc(Cl)cc2)c(-c2ccc(Cl)cc2)s1)C1CCN(Cc2ccc(OC(F)(F)F)cc2)CC1` here?
A: 2.18 µM

Q: What about the IC50 (Acetylcholinesterase) of the same compound?
A: 1.38 µM

Q: Which results are given for `Cc1ccc(CN2CCC(Nc3nc(-c4ccc(Cl)cc4)c(-c4ccc(Cl)cc4)s3)CC2)cc1`?
A: IC50 (Cholinesterase): > 10 µM; IC50 (Acetylcholinesterase): 3.19 µM

Q: For `Cc1ccc(-c2nc(NC(=O)C3CCN(Cc4ccc([N+](=O)[O-])cc4)CC3)sc2-c2ccc(C)cc2)cc1`, which IC50 (Cholinesterase) is on record?
A: > 10 µM

Q: And the IC50 (Acetylcholinesterase)?
A: 2.32 µM

Q: For `O=C(Nc1nc(-c2ccc(Cl)cc2)c(-c2ccc(Cl)cc2)s1)C1CCN(Cc2ccccc2C(F)(F)F)CC1`, which IC50 (Cholinesterase) is on record?
A: 3.36 µM

Q: What about the IC50 (Acetylcholinesterase) of the same compound?
A: 2.77 µM

Q: Which results are given for `COc1ccc(-c2nc(NC(=O)C3CCN(Cc4ccccc4C)CC3)sc2-c2ccc(OC)cc2)cc1`?
A: IC50 (Cholinesterase): 1.85 µM; IC50 (Acetylcholinesterase): 1.34 µM

Q: For `Cc1ccc(-c2nc(NC(=O)C3CCN(Cc4ccccc4C)CC3)sc2-c2ccc(C)cc2)cc1`, which IC50 (Cholinesterase) is on record?
A: 1.5 µM

Q: And the IC50 (Acetylcholinesterase)?
A: > 10 µM

Q: Which results are given for `Cc1ccc(-c2nc(NC(=O)C3CCN(Cc4cccc(F)c4)CC3)sc2-c2ccc(C)cc2)cc1`?
A: IC50 (Cholinesterase): 1.97 µM; IC50 (Acetylcholinesterase): > 10 µM

Q: Which results are given for `COc1ccc(-c2nc(NC(=O)C3CCN(Cc4ccccc4C#N)CC3)sc2-c2ccc(OC)cc2)cc1`?
A: IC50 (Cholinesterase): 3.58 µM; IC50 (Acetylcholinesterase): 2.8 µM

Q: Which IC50 (Cholinesterase) does the source give for `Cc1ccc(-c2nc(NC3CCN(Cc4ccccc4)CC3)sc2-c2ccc(C)cc2)cc1` here?
A: 3.59 µM

Q: And the IC50 (Acetylcholinesterase)?
A: 1.28 µM

Q: Which viability at 24 h, 40 µM (in vitro [1]) does the source give for `COc1cc2c(cc1OC)C(=O)C(CC1CCN(Cc3ccccc3)CC1)C2` (centres undefined) [DONEPEZIL] here?
A: 96.9%

Q: What about the viability at 24 h, 80 µM (in vitro [2]) of the same compound?
A: 92.3%

Q: With `COc1ccc(-c2nc(NC(=O)C3CCN(Cc4ccc(F)cc4)CC3)sc2-c2ccc(OC)cc2)cc1` as the compound, how does the IC50 (Cholinesterase) read?
A: 1.73 µM

Q: What about the IC50 (Acetylcholinesterase) of the same compound?
A: 1.16 µM

Q: Which results are given for `Cc1ccc(-c2nc(NC(=O)C3CCN(Cc4cc(F)cc(F)c4)CC3)sc2-c2ccc(C)cc2)cc1`?
A: IC50 (Cholinesterase): 3.51 µM; IC50 (Acetylcholinesterase): 2.5 µM

Q: Which IC50 (Cholinesterase) does the source give for `N#Cc1ccccc1CN1CCC(C(=O)Nc2nc(-c3ccc(Cl)cc3)c(-c3ccc(Cl)cc3)s2)CC1` here?
A: 1.59 µM

Q: And the IC50 (Acetylcholinesterase)?
A: 1.77 µM

Q: For `Clc1ccc(-c2nc(NC3CCN(Cc4ccccc4)CC3)sc2-c2ccc(Cl)cc2)cc1`, which IC50 (Cholinesterase) is on record?
A: 3.3 µM

Q: And the IC50 (Acetylcholinesterase)?
A: 1.38 µM

Q: Which IC50 (Cholinesterase) does the source give for `Cc1ccc(-c2nc(NC(=O)C3CCN(Cc4ccc(C#N)cc4)CC3)sc2-c2ccc(C)cc2)cc1` here?
A: 5.32 µM

Q: And the IC50 (Acetylcholinesterase)?
A: 1.28 µM

Q: For `COc1ccc(-c2nc(NC(=O)C3CCN(Cc4cc(F)cc(F)c4)CC3)sc2-c2ccc(OC)cc2)cc1`, which IC50 (Cholinesterase) is on record?
A: > 10 µM

Q: And the IC50 (Acetylcholinesterase)?
A: 2.45 µM

Q: Which IC50 (Cholinesterase) does the source give for `COc1ccc(CN2CCC(Nc3nc(-c4ccc(Cl)cc4)c(-c4ccc(Cl)cc4)s3)CC2)cc1` here?
A: 1.57 µM

Q: And the IC50 (Acetylcholinesterase)?
A: 1.12 µM

Q: For `Cc1ccc(-c2nc(NC(=O)C3CCN(Cc4c(F)cccc4Cl)CC3)sc2-c2ccc(C)cc2)cc1`, which IC50 (Cholinesterase) is on record?
A: 2.77 µM

Q: And the IC50 (Acetylcholinesterase)?
A: 2.88 µM

Q: With `Fc1ccc(CN2CCC(CNc3nc(-c4ccc(Cl)cc4)c(-c4ccc(Cl)cc4)s3)CC2)c(C(F)(F)F)c1` as the compound, how does the IC50 (Cholinesterase) read?
A: 3.3 µM

Q: And the IC50 (Acetylcholinesterase)?
A: 1.24 µM

Q: What does the source list for `COc1ccc(-c2nc(NC(=O)C3CCN(Cc4ccc(F)cc4C(F)(F)F)CC3)sc2-c2ccc(OC)cc2)cc1`?
A: IC50 (Cholinesterase): 1.78 µM; IC50 (Acetylcholinesterase): 1.23 µM

Q: With `Cc1ccc(CN2CCC(Nc3nc(-c4ccc(C)cc4)c(-c4ccc(C)cc4)s3)CC2)cc1` as the compound, how does the IC50 (Cholinesterase) read?
A: 6.03 µM

Q: What about the IC50 (Acetylcholinesterase) of the same compound?
A: 1.09 µM

Q: With `O=C(Nc1nc(-c2ccc(Cl)cc2)c(-c2ccc(Cl)cc2)s1)C1CCN(Cc2ccc(F)cc2Cl)CC1` as the compound, how does the IC50 (Cholinesterase) read?
A: > 10 µM

Q: What about the IC50 (Acetylcholinesterase) of the same compound?
A: 3.7 µM

Q: Which IC50 (Cholinesterase) does the source give for `Cc1ccc(-c2nc(NC(=O)C3CCN(Cc4ccc(C(F)(F)F)cc4)CC3)sc2-c2ccc(C)cc2)cc1` here?
A: 2.78 µM

Q: What about the IC50 (Acetylcholinesterase) of the same compound?
A: > 10 µM

Q: With `Cc1ccc(-c2nc(NC(=O)C3CCN(Cc4ccccc4C(F)(F)F)CC3)sc2-c2ccc(C)cc2)cc1` as the compound, how does the IC50 (Cholinesterase) read?
A: 1.88 µM

Q: And the IC50 (Acetylcholinesterase)?
A: 7.57 µM

Q: For `Cc1ccccc1CN1CCC(C(=O)Nc2nc(-c3ccc(Cl)cc3)c(-c3ccc(Cl)cc3)s2)CC1`, which IC50 (Cholinesterase) is on record?
A: 1.04 µM

Q: What about the IC50 (Acetylcholinesterase) of the same compound?
A: 1.1 µM

Q: With `N#Cc1ccc(CN2CCC(Nc3nc(-c4ccc(Cl)cc4)c(-c4ccc(Cl)cc4)s3)CC2)cc1` as the compound, how does the IC50 (Cholinesterase) read?
A: 1.72 µM

Q: What about the IC50 (Acetylcholinesterase) of the same compound?
A: 1.02 µM
